Experimental data: US11186640B2, “Method for the identification of immunotherapy-drug combinations using a network approach” (THE UNIVERSITY OF WESTERN AUSTRALIA, priority 2014, dated 2021)
Entries after “also recorded” stand apart in the source; their conditions may differ. Where two headings read alike, the source gives them in different places.

Experiments:
[1] = test system: Renca kidney cancer cells; assay type: in vivo, BALB/c mice
[2] = test system: AB1-HA mesothelioma; assay: in vivo co-treatment with anti-CTLA-4 in AB1-HA tumour bearing mice; design: species or system BALB/c mice; conditions: for anti-tumour response / response rate to anti-CTLA-4 on co-treatment: drug in combination with anti-CTLA-4
[3] = test system: AB1-HA mesothelioma; assay: in vivo co-treatment with anti-GITR in AB1-HA tumour bearing mice; design: species or system BALB/c mice; conditions: drug in combination with anti-GITR
[4] = test system: Line-1 lung cancer cells; assay: in vivo co-treatment with anti-CTLA4 in Line-1 lung cancer model; design: species or system BALB/c mice
[5] = mouse, in vivo, ip, 400 mg/kg
[6] = mice, i.p. administration; cited from earlier work
[7] = test system: melanoma; conditions: melanoma patients after ipilimumab; cited from earlier work

| Compound | anti-tumour response / response rate to anti-CTLA-4 on co-treatment [2] | also measured |
| --- | --- | --- |
| CC1=C(/C=C/C(C)=C/C=C/C(C)=C/C(=O)O)C(C)(C)CCC1 [ATRA, All-trans Retinoic Acid] | clear effect; also recorded: increased anti-tumour response | survival / clinical efficacy of CTLA4 blockade on co-treatment ([1]; mouse, in vivo): improve the clinical efficacy; also recorded: improved survival |
| O=S(=O)(c1cccc2cnccc12)N1CCCNCC1 [Fasudil] | increased the response rate | growth delay ([2]; drug alone): did not result in any growth delay |
| O=[N+]([O-])O[C@H]1CO[C@H]2[C@@H]1OC[C@H]2O[N+](=O)[O-] [ISDN, Isosorbide dinitrate] | increase the therapeutic efficacy; also recorded: increased the response rate | survival / clinical efficacy of CTLA4 blockade on co-treatment ([1]; Renca kidney cancer, drug in combination with anti-CTLA4): improve the clinical efficacy; also recorded: improved survival; survival / efficacy of checkpoint blockade with anti-GITR on co-treatment [3]: could equally be improved; also recorded: improved survival; complete regression / clinical efficacy of CTLA4 blockade on co-treatment ([4]; drug in combination with anti-CTLA4): improve the clinical efficacy; also recorded: complete regression in a substantial proportion of mice; complete regression ([4]; either treatment alone): not observed |
| CCOC(=O)N1CCN(/[N+]([O-])=N/Oc2ccc([N+](=O)[O-])cc2[N+](=O)[O-])CC1 [JS-K] | improves the clinical benefit |  |
| NC(=NCCC[C@H](N)C(=O)O)N[N+](=O)[O-] [L-NNA] | diminished; also recorded: abrogated the anti-tumour effect |  |
| Cc1cc(Nc2cc(N3CCN(C)CC3)nc(Sc3ccc(NC(=O)C4CC4)cc3)n2)n[nH]1 [VX-680] | significantly increased |  |
| CN1CC[C@H](c2c(O)cc(O)c3c(=O)cc(-c4ccccc4Cl)oc23)[C@H](O)C1 [flavopiridol] | increased the response rate |  |
| COc1c2c(cc3c1OCO3)CCN(C)C2 [hydrocotarnine] | increased anti-tumour response |  |
| Cc1cc2c(cc1S(N)(=O)=O)S(=O)(=O)CCC2 [meticrane] | clear effect; also recorded: increased anti-tumour response | clinical signs [5]: slightly ruffled; LD50 [6]: 10000 mg/kg |
| Cc1ncc(CO)c(CO)c1O [pyridoxine] | clear effect; also recorded: increased anti-tumour response |  |
| ipilimumab |  | 7-year survival [7]: 17% |
